Measured values reported in patent US20210116454A1, “METHODS FOR TREATING A HEMATOLOGICAL CANCER AND THE USE OF COMPANION BIOMARKERS FOR 2-(2,6-DIOXOPIPERIDIN-3-YL)-4-((2-FLUORO-4-((3-MORPHOLINOAZETIDIN-1-YL)METHYL)BENZYL)AMINO)ISOINDOLINE-1,3-DIONE” (CELGENE CORPORATION, priority 2019, published 2021).

Columns and labels:
Assay type in all cases: cell-based
SU-DHL-6 = test: 5-day viable cell number and apoptosis (7-AAD exclusion/Annexin V flow cytometry); conditions: SU-DHL-6 cells, 5 days
Outline: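 5 d tx, escalating doses, DLBCL lines; viable cells counted; apoptosis via 7-AAD exclusion/Annexin V by flow.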

SU-DHL-2^CRBNWT cells = test: Live-cell imaging of caspase-3 activation; conditions: time course of 112 hours
Description: To confirm the timing of induction of apoptosis and its cereblon dependency, a live-cell imager that provides kinetic, real-time caspase-3 activation (indicator of apoptosis) data was used. SU-DHL-2^CRBNWT cells treated with Compound 1 were analyzed for caspase-3 activation by following the cleavage in cells of a specific caspase-3 enzyme substrate over a time course of 112 hours. Compound 1-dependent induction of caspase-3 activity began at 12 hours post treatment and reached maximal induction at ˜72 hours (FIG. 5 D).

[1] = system: KARPAS-422-Cas9 and SU-DHL-4-Cas9 knock-out cells; test: Flow cytometry-based cellular competition assay in substrate knock-out cells; conditions: 0.1, 1, 10 nM
From the text: Compound 1 induces autonomous cell killing activity in DLBCL cells in a cereblon-dependent manner. To investigate the consequence of loss of a single cereblon substrate, CRISPR/Cas9-mediated knockout of a cereblon substrate coupled with a flow cytometry-based cellular competition assay was utilized to assess relative cell fitness upon gene knock-out in six DLBCL cell lines: KARPAS-422, U-2932, RIVA, SU-DHL-16, HT, and SU-DHL-4 (FIG. 7, Panel A). To perform the flow cytometry-based competition assay, stable Cas9-expressing DLBCL cells were transduced with a control non-targeting sgRNA construct containing a GFP reporter (sgNT-1-GFP), or with a sgRNA construct targeting a gene of interest containing an RFP reporter (sgRNA-RFP). For targeted knock-out of each gene, two sgRNA sequences were used to knock-out Ikaros (sgIKZF1-1, sgIKZF1-2), Aiolos (sgIKZF3-1, sgIKZF3-2), and ZFP91 (sgZFP91-1, sgZFP91-3). For controls, two non-targeting sgRNAs (sgNT-1, sgNT-2), a sgRNA targeting a non-coding region of the genome (sgNC-1), and a sgRNA targeting an established essential gene ETF1 (sgETF1-1) were included. Following transduction with sgRNAs, cells were washed and mixed at a 1:1 ratio and the percentage of GFP^+ and RFP^+ cells was measured every three days for eighteen days (FIG. 7, panel B). […]

Karpas-422 cells = test: Western blot of substrates and downstream proteins
Description: (§1) To confirm that the rapid degradation of substrates and induction of apoptosis by Compound 1 is not unique to SU-DHL2 cells, TMD8 (ABC cell line) and Karpas-422 (GCB-cell line) cells were treated with vehicle control (DMSO) or Compound 1 at the times and concentrations indicated (FIG. 6).
(§2) In a second experiment, we confirmed that Compound 1 (100 nM) treatment of TMD8 produced a large reduction of Aiolos, Ikaros, and ZFP91 at the 24-hour timepoint. […] In Karpas-422 cells, Compound 1 also produced a reduction of Aiolos, Ikaros, and ZFP91 at the 24-hour timepoint (FIG. 6, panel D). At the 48-hour timepoint, Compound 1 increased the abundance of the proliferation inhibitor p21 and the interferon-stimulated genes IRF7, IFIT3, and DDX58, and reduced the expression of MYC (FIG. 6, panel D).

TMD8 cells = test: Western blot of substrates and downstream proteins
Description: as §1, §2

[2] = TMD8, 100 nM, 24-hour timepoint

O=C1CC[C@H](N2C(=O)c3cccc(NCc4ccc(CN5CC(N6CCOCC6)C5)cc4F)c3C2=O)C(=O)N1 [Compound 1, (S)-2-(2,6-dioxopiperidin-3-yl)-4-((2-fluoro-4-((3-morpholinoazetidin-1-yl)methyl)benzyl)amino)isoindoline-1,3-dione]
EC50 (SU-DHL-6; Homo sapiens, 120 h): 452 nM
Emax (SU-DHL-6; Homo sapiens, 120 h): 46.3%
IC50 (SU-DHL-6; Homo sapiens, 120 h): 260 nM
% Viable Cells AUC (SU-DHL-6): 88.38
% Viable Cells Emax (SU-DHL-6): 5.843%
% Viable Cells Sensitivity (SU-DHL-6): High (highly sensitive to Compound 1 with less than 6% viable cells remaining (Emax) after treatment)
Apoptosis AUC (SU-DHL-6): 421.1
Apoptosis Sensitivity (SU-DHL-6): High
start of induction of caspase-3 activity post treatment (SU-DHL-2^CRBNWT cells): 12 h
time of maximal induction of caspase-3 activity (SU-DHL-2^CRBNWT cells): ~72 h
RFP+/GFP+ ratio relative to DMSO-treated control cells ([1]; sgIKZF1 and sgIKZF3 knock-out cells): dose-dependent decrease
dose-dependent decrease in RFP+/GFP+ ratio ([1]; sgZFP91 cells): not observed
Ikaros, Aiolos, and ZFP91 protein expression (Karpas-422 cells; Karpas-422, 10 and 100 nM, entire course of treatment): complete suppression
MYC reduction (Karpas-422 cells; Karpas-422, after 72 hours): 50%
BCL6 reduction (TMD8 cells; [2]): 65%
IRF4 reduction (TMD8 cells; [2]): 90%
MYC reduction (TMD8 cells; [2]): 75%
Ikaros, Aiolos, and ZFP91 protein expression (TMD8 cells; TMD8, 10 and 100 nM, entire course of treatment): complete suppression
